# In publication PMC11984905, “Chiral Switch of Gadopiclenol: New Standards in MRI Probes” (Advanced Science, 2025):
# Several values for one entry are separate records, joined by “and”; a condition that tells them apart may be missing. Identical values can stand only once. Marks after values point to notes of the source that are not given here.
# How the values were obtained:
# [1] = Relaxivity at 21 / 400 MHz and 25 °C in 0.15 M NaCl; type: physicochemical; conditions: 0.15 M NaCl
# Protocol: The relaxivity values were calculated from the longitudinal relaxation time of H2O protons (T 1) measured at 21 MHz on a Stelar relaxometer connected to a Bruker WP80 NMR electromagnet adapted to variable‐field measurements (15−80 MHz proton Larmor frequency). The temperature of the sample holder was controlled with a thermostatted air stream. The longitudinal relaxation time was measured with the “inversion recovery” method (180° – τ – 90°) by using 12 different τ values with typical 90° pulse width of 6.4 µs, 4 scans. The measurements were performed with 1 mM solution of the Gd(III)‐complexes with rac‐L1, ent‐L1, rac‐L2, and ent‐L2 ligands, so the relaxivity values were given as r 1 = […] where T 1p and T 1w were the relaxation time of bulk water protons in the presence and absence of paramagnetic species, respectively. The variable pH relaxivity measurements of Gd(III)‐complexes with rac‐L1, ent‐L1, rac‐L2, and ent‐L2 ligands could be carried out by direct titration of the samples in the pH range 2.5–9.0 (21 MHz, 25 °C, 0.15 M NaCl). The pH was adjusted by stepwise addition of concentrated NaOH or HCl solution.
# The stability constant of Gd(III)‐complexes with rac‐L2 and ent‐L2 ligands were determined by the measurement of the proton relaxation rates (r 1) studying the competition reaction of rac‐L2 and ent‐L2 ligands with AAZTA for Gd(III) ion at pH = 4.0 in 0.15 M NaCl solution. In these experiments, the concentration of Gd^3+, rac‐L2, and ent‐L2 ligands was 2.0 mM, while that of the AAZTA was varied between 1.0 and 6.0 mM (5 × 1.5 mL samples). The pH was adjusted to pH 4.0 by stepwise addition of concentrated NaOH or HCl solutions. The samples were kept at 70 °C for a month and then at 25°C for two months in order to attain the equilibrium (the time needed to reach the equilibria was determined by ^1H‐NMR relaxometry). ^1H‐NMR relaxometric measurement of Gd(III) – rac‐L2 – AAZTA and Gd(III) – ent‐L2 – AAZTA systems were performed with a Bruker Avance III 400 (9.4 T) equipped with BB inverse z gradient probe (5 mm). The longitudinal relaxation time (T 1) was measured with the “inversion recovery” method (180° – τ – 90°) by using 12 different τ values with typical 90° pulse width of 12.0 µs, 4 scans at 298 K. The stability constants of [Gd(rac‐L2)] and [Gd(ent‐L2)] complexes were calculated by considering the protonation constants of AAZTA ligand and the stability constant of [Gd(AAZTA)]^− complex (AAZTA: logK 1 ^H = 10.06, logK 2 ^H = 6.50, logK 3 ^H = 3.77, logK 4 ^H = 2.33, logK 5 ^H = 1.51; [Gd(AAZTA)]^−: logK GdL = 18.93, 0.15 M NaCl, 25 °C).^[ [47] ^] The equilibrium constants were calculated with the program PSEQUAD.^[ [48] ^]
# [2] = 1H NMRD profiles and 17O NMR relaxometry in water; type: physicochemical; conditions: for ^298K r 1 [1.5 T] / r 1 ^310K [1.5 T]: water; for ER / q: fixed in the fitting procedure; for q: number of coordinated water molecules; for τ M1: residence time of coordinated water 1, 298 K; for τ M2: residence time of coordinated water 2, 298 K; for ^SS q: second-sphere water molecules at 3.6 Å; for ^298K r 1 [1.5 T] / ^SS q: 298 K
# Protocol: The magnetic‐field dependence of the longitudinal relaxation rate of water protons (^1H NMRD) were measured in aqueous solution by using a variable field relaxometer equipped with an HTS‐110 3T Metrology Cryogen‐free Superconducting Magnet (Mede, Italy), operating in the overall range of proton Larmor frequencies of 20–120 MHz (0.47–3.00 T). The measurements were performed using the standard inversion recovery sequence (20 experiments, 3 scans) with a 90° pulse width of 3.5 µs. The temperature was controlled with a Stelar VTC‐91 heater airflow. Additional points in the 0.01–10 MHz frequency range were collected on a Fast‐Field Cycling (FFC) Stelar SmarTracer Relaxometer. T 1 values at 500 MHz were collected on a Bruker Avance III NMR spectrometer operating at 11.7 T. The concentration of Gd^3+ in the solutions was determined by using bulk magnetic susceptibility (BMS) shift measurements performed at 11.7 T. For the measurements in the biological fluid, lyophilized plasma matrix (Siemens Healthcare) was added to 1 mL of [Gd(ent‐L2)] (1.0 mM) or Seronorm (Sero) was solubilized in 5 mL [Gd(ent‐L2)] (1.0 mM) solution. ^1H NMRD of the final solution was measured at 310 K.
# The spectra were acquired on a Bruker Avance III spectrometer (11.7 T) using a 5 mm probe under temperature control. An aqueous solution of the complexes ([GdL] = 10–15 mM) was enriched to ca. 2.0% of the ^17O isotope (Cambridge Isotope). The transverse relaxation rates (R 2) were measured as a function of temperature in the 278−350 K range. The simultaneous fit of ^1H NMRD and ^17O NMR profiles data was performed using the Micromath Scientist software (version 2.0, Salt Lake City, UT, USA).
τ R ([2]; Table 2) [ps],"τ R ([2]; Table S20, 298 K) [ps]",ER [2],q [2],τ M1 [2] [ns],τ M2 [2] [ns],^SS q [2],Structure (SMILES),Relaxivity of GdL species ([1]; 21 MHz) [mM⁻¹ s⁻¹],Relaxivity of GdL species ([1]; 400 MHz) [mM⁻¹ s⁻¹],Relaxivity of GdH2L species ([1]; 21 MHz) [mM⁻¹ s⁻¹],Relaxivity of GdH3L species ([1]; 21 MHz) [mM⁻¹ s⁻¹],Relaxivity of GdHL species ([1]; 21 MHz) [mM⁻¹ s⁻¹],^298K r 1 [1.5 T] [2] [mM⁻¹ s⁻¹],r 1 ^310K [1.5 T] [2] [mM⁻¹ s⁻¹],also measured
,,,,,,,O=C(CCC(C(=O)O)N1CCN(C(CCC(=O)NCC(O)CO)C(=O)O)Cc2cccc(n2)CN(C(CCC(=O)NCC(O)CO)C(=O)O)CC1)NCC(O)CO (racemic) [rac‐L2],14.8 ± 0.1,10.8 ± 0.1,,,,,,
,,,,,,,"O=C(O)CCC(C(=O)O)N1CCN(C(CCC(=O)O)C(=O)O)Cc2cccc(n2)CN(C(CCC(=O)O)C(=O)O)CC1 (racemic) [rac‐L1, 2,2’,2’’-[3,6,9,15-tetraazabicyclo[9.3.1]pentadeca-1(15),11,13-triene-3,6,9-triyl]tripentanedioic acid]",9.61 ± 0.06,,9.61 ± 0.06,10.1 ± 0.1,9.61 ± 0.06,,,Relaxivity of GdH4L species ([1]; 21 MHz): 11.7 ± 0.1 mM⁻¹ s⁻¹
,,,,,,,O=C(O)CCC(C(=O)O)N1CCN(C(CCC(=O)O)C(=O)O)Cc2cccc(n2)CN(C(CCC(=O)O)C(=O)O)CC1 (stereo not drawn) [ent‐L1],12.9 ± 0.1,,12.2 ± 0.2,11.8 ± 0.1,12.1 ± 0.1,,,
,,,,,,,O=C(CCC(C(=O)O)N1CCN(C(CCC(=O)NCC(O)CO)C(=O)O)Cc2cccc(n2)CN(C(CCC(=O)NCC(O)CO)C(=O)O)CC1)NCC(O)CO (stereo not drawn) [ent‐L2],16.2 ± 0.1,11.8 ± 0.1,,,,,,
96 ± 3,96±3,22^b) kJ mol^-1,2,144 ± 4,58 ± 5,2.5 ± 0.1,O=C([O-])CCC(C(=O)[O-])N1CCN(C(CCC(=O)[O-])C(=O)[O-])Cc2cccc(n2)CN(C(CCC(=O)[O-])C(=O)[O-])CC1.[Gd+3] (racemic) [[Gd(ent‐L1)]^3−],,,,,,10.9,8.6,r 1 difference between [Gd(rac-L1)]3− and [Gd(ent-L1)]3− [2]: 18%; q ([2]; listed as [Gd(ent-L1)]^3-): 2^b); ^SS q ([2]; listed as [Gd(ent‐L1)]^3⁻): 2.5
127 ± 4,127±4,22^b) kJ mol^-1,2,155 ± 3,77 ± 5,4.5 and 4.5 ± 0.2,O=C(CCC(C(=O)[O-])N1CCN(C(CCC(=O)NCC(O)CO)C(=O)[O-])Cc2cccc(n2)CN(C(CCC(=O)NCC(O)CO)C(=O)[O-])CC1)NCC(O)CO.[Gd+3] (stereo not drawn) [[Gd(ent‐L2)]],,,,,,16.5,12.6,"r 1 higher than [Gd(PCTA)] [2]: 175%; r 1 increase compared to [Gd(DOTA)]− [2]: 309%; relaxivity, times higher than that of currently used GBCAs [2]: 2 to 3 times; q ([2]; listed as [Gd(ent-L2)]): 2^b"
